Data as given in ChEMBL document CHEMBL1122727, “Adrenoceptor and tetrabenazine antagonism activities of some pyridinyltetrahydropyridines” (J Med Chem, 1984).

Key:
[1] = target: T1, Alpha-1A adrenergic receptor (Bos taurus, UniProt P18130); experiment: Displacement of [3H]prazosin from calf cerebral cortex alpha-1 adrenergic receptor; assay type: tissue-based
T1 sequence (P18130 whole entry): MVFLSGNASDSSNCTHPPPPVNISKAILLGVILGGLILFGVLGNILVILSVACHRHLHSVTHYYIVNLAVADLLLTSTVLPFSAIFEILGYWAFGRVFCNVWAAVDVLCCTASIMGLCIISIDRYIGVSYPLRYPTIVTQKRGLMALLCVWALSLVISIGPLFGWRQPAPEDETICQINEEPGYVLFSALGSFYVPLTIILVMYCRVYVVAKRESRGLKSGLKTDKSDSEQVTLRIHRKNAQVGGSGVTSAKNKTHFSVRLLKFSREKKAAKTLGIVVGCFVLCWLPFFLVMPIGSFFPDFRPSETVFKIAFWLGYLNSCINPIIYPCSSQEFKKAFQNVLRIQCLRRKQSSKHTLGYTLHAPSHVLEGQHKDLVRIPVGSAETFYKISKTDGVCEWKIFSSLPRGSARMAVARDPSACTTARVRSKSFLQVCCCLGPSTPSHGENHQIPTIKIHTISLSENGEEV

[2] = Relative binding to alpha-1a and alpha-2 adrenergic receptors (ratio of Ki-prazosin and Ki-clonidine)
[3] = target: T2, Adrenergic receptor alpha-1 (Rattus norvegicus, UniProt P15823+P23944+P43140); experiment: Antagonistic activity upon postsynaptic alpha-1 adrenergic receptor was determined in the rat isolated, field stimulated vas deferens using methoxamine; assay type: functional, tissue-based
T2 sequence (P15823 whole entry): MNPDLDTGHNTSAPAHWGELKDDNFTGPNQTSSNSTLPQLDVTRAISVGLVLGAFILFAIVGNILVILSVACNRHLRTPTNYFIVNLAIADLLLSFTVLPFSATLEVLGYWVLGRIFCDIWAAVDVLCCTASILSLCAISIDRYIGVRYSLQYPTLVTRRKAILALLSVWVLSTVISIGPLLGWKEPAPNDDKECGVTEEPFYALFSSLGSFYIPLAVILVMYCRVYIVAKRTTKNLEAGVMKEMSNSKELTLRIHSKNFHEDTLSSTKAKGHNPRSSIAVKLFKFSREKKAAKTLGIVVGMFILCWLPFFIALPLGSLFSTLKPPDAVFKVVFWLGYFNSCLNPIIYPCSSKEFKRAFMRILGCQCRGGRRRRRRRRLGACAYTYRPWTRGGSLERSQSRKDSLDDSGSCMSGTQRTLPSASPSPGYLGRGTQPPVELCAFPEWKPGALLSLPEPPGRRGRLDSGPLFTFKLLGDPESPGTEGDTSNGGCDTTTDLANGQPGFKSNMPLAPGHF
T2 sequence (P23944 whole entry): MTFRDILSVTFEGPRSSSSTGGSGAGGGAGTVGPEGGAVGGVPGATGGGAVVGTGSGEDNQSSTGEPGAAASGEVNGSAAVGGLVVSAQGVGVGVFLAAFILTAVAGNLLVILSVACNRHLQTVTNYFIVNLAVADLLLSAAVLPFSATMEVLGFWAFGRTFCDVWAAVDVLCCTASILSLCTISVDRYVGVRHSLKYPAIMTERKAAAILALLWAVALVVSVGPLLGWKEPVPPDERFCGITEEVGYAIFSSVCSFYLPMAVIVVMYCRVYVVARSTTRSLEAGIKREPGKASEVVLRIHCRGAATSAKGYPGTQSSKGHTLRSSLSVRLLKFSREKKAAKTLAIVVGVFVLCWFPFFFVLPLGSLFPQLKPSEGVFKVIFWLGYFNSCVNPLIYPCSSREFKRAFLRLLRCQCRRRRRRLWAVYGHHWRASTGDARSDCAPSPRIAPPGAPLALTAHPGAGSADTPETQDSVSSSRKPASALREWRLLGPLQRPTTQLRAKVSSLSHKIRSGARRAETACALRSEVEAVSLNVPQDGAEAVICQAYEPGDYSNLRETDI
T2 sequence (P43140 whole entry): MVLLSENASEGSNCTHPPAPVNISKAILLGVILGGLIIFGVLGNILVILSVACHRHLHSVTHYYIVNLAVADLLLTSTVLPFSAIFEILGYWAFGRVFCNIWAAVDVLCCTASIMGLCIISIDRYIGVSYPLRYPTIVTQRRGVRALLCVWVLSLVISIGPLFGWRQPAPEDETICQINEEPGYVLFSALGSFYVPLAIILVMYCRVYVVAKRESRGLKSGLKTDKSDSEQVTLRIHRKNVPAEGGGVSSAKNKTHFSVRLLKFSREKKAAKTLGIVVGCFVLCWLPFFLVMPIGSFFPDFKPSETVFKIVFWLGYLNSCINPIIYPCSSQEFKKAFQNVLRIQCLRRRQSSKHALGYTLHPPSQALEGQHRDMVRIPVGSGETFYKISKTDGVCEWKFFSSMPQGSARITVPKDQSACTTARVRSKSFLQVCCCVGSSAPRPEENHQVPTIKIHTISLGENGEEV

[4] = Selectivity ratio expressed as the ratio of -log methoxamine pA2 to -log clonidine pA2
[5] = target: T3, Adrenergic receptor alpha-2 (Rattus norvegicus, UniProt P22086+P19328+P22909); experiment: Antagonistic activity against clonidine-stimulated rat vas deferens presynaptic alpha-2 adrenergic receptor; assay type: functional, tissue-based
T3 sequence (P22086 whole entry): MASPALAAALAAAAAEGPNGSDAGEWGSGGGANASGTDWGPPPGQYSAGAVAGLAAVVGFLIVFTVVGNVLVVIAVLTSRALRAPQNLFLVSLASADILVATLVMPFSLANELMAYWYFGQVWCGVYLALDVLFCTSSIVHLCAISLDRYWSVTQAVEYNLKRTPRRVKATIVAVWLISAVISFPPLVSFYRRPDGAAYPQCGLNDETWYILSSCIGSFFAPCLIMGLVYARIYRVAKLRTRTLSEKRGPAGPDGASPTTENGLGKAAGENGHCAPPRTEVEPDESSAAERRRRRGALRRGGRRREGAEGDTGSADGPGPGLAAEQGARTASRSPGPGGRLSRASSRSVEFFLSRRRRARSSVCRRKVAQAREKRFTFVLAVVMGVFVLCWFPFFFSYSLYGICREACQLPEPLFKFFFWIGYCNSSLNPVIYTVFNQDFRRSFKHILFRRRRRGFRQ
T3 sequence (P19328 whole entry): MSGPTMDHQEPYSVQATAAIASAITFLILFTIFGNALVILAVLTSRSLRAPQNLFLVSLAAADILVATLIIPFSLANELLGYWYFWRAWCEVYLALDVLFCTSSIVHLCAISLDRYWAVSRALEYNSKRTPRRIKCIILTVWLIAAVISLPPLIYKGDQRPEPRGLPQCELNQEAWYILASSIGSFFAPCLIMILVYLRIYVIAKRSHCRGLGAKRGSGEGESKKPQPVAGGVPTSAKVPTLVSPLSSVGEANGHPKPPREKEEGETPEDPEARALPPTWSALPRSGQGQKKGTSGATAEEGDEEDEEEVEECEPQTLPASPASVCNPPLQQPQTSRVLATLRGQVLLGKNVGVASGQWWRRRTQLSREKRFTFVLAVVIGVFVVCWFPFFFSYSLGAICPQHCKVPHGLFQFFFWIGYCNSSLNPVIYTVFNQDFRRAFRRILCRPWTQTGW
T3 sequence (P22909 whole entry): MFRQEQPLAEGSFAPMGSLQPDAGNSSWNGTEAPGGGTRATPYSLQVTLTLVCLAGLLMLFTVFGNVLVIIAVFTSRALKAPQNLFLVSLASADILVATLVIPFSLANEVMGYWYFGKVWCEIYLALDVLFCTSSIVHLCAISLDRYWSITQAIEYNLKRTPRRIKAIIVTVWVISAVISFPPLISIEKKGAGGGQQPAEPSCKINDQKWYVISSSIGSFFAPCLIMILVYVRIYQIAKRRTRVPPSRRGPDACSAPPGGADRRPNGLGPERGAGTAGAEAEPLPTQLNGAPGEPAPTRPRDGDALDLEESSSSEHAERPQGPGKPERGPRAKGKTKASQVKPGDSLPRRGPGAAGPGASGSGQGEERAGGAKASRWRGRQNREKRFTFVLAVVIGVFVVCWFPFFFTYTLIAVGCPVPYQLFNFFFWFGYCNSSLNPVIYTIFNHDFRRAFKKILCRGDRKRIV

[6] = test system: Mus musculus; experiment: Compound was evaluated for its antagonistic effect on the Tetrabenazine-induced ptosis following intravenous administration; assay type: functional
[7] = Displacement of [3H]clonidine from calf cerebral cortex alpha-2 adrenergic receptor; assay type: tissue-based, Bos taurus

Row | SMILES | Ki [1] | Selectivity ratio [2] | pA2 [3] | Selectivity ratio [4] | pA2 [5] | ED50 [6] | Ki [7]
1 | CN1CC=C(c2ccccn2)CC1 | 2500 nM | 44 | 5.4 | 6 | 6.2 | 0.5 mg/kg | 57 nM
2 | CN1CCN(c2ncccc2F)CC1 |  | 98 |  | 16 |  |  | 5 nM
3 | CN1CCC(c2ccccn2)CC1 | 2500 nM | 6 |  |  | < 5.8 |  | 420 nM
4 | C1=C(c2ccccn2)CCNC1 | 4000 nM | 28 |  |  | < 5.7 |  | 144 nM
5 | CNCCCN1c2ccccc2CCc2ccccc21 [DESIPRAMINE] |  |  |  |  |  | 0.07 mg/kg | 
6 | CN1CC=C(c2ncccc2F)CC1 | 3300 nM | 150 | 5.3 | 32 | 6.8 | 0.35 mg/kg | 22 nM
7 | Cc1cccnc1C1=CCN(C)CC1 | 2500 nM | 15 |  |  | < 5.8 |  | 170 nM
8 | CN1CC=C(c2ccncc2F)CC1 | 7700 nM | 11 |  |  | < 5.8 |  | 720 nM
9 | CN1CC=C(c2cccnc2)CC1 | 4800 nM | 6.4 |  |  | < 5.8 |  | 750 nM
10 | CN1CC=C(c2ncccc2Cl)CC1 | 2260 nM | 31 |  |  | < 5.9 |  | 72 nM
11 | c1ccc(N2CCNCC2)nc1 |  | 65 |  | 5 |  |  | 37 nM
